Data on ten compounds can be found in patent US20040191168A1, “Tumor cell killing by cell cycle checkpoint abrogation combined with Inhibition of the classical mitogen activated protein (map) kinase pathway” (priority 2000, published 2004).

Read-outs that look alike come from different tables or passages of the source.

The test system of test [1] is U937 cells. Briefly: Loss of mitochondrial membrane potential (reduced DiOC6 uptake, flow cytometry) in U937 cells. To be noted: for effect on mitochondrial injury (loss of ΔΨm) in PD184352/UCN-01-treated cells / effect on loss of ΔΨm by UCN-01 and PD184352: UCN-01 150 nM + PD184352 10 μM; for effect on mitochondrial injury (loss of ΔΨm) in PD184352/UCN-01-treated cells: SB203580 10 μM, CHX 1 mM; for "Low" DiOC6 (% cells): PD184352 10 μM, GFX 1 μM, safingol 2 μM, mean ± SD; for effect on loss of ΔΨm by UCN-01 and PD184352: 10 h, caspase inhibitor 20 μM. It is filed as cell-based, human. The protocol: (§1) Experimental Format. All of the experiments were performed using logarithmically growing cells (3-5×10^5 cells/ml). Cell suspensions were placed in sterile 25 cm^2 T-flasks (Corning, Corning, N.Y.) and incubated with MEK or PKC inhibitors for 30 min at 37° C. At the end of this period, UCN-01 (or in some cases, caffeine) was added to the suspension, and the flasks were placed in 37° C./5% CO2 incubator at various intervals, generally 18 h. In some studies, the p38 MAP kinase inhibitor SB203580 was added concurrently with MEK inhibitors. After drug treatment, cells were harvested and subjected to further analysis as described below.
Analysis of Mitochondrial Membrane Potential (ΔΨm). Cells 2×10^5 were incubated with 40 nM DiOC6 (Molecular Probes Inc., Eugene, Oreg.) in PBS at 37° C. for 20 min and then analyzed by flow cytometry as described previously (Wang et al., 1999).
A general note: In flow cytometry, cells or beads pass a laser one at a time.

Test [2] concerns U937 cells. Briefly: Morphological assessment of apoptosis (Wright-Giemsa cytospins) in U937 cells. The test is classed as cell-based, human. To be noted: for effect on apoptosis in PD184352/UCN-01-treated cells / effect on induction of apoptosis by UCN-01 and PD184352: UCN-01 150 nM + PD184352 10 μM; for effect on apoptosis in PD184352/UCN-01-treated cells: SB203580 10 μM, CHX 1 mM; for Apoptotic cells (%): PD184352 10 μM, GFX 1 μM, safingol 2 μM, mean ± SD; for effect on induction of apoptosis by UCN-01 and PD184352: 10 h, caspase inhibitor 20 μM. The protocol: as §1
Analysis of Apoptosis. […] For each condition, 5 to 10 randomly selected fields/condition were evaluated, encompassing at least 500 cells (Vrana and Grant, 2001). To confirm the results of morphological analysis, in some cases cells were also evaluated by TUNEL staining (Gorczyca et al., 1993) and assessment of oligonucleosomal DNA fragmentation of total DNA. DNA fragmentation was analyzed by 1.8% agarose gel electrophoresis as described previously (Jarvis et al., 1994). For TUNEL staining, cytocentrifuge preparations were obtained and fixed with 4% formaldehyde. The slides were treated with acetic acid/ethanol (1:2), stained with terminal transferase reaction mixture containing terminal transferase reaction buffer, 0.25 units/ ml terminal transferase, 2.5 mM CoCl2, and 2 pmol fluorescein-12-dUTP (Boehringer Mannheim, Indianapolis, Ind.), and visualized using fluorescence microscopy.

Test [3] concerns DU145 cells. Briefly: Colony forming (clonogenic) assay in DU145 cells. The test is classed as cell-based, human. To be noted: 25 μM PD98059, 150 nM UCN-01, replated 48 h, ± SEM. The protocol:
(§2) Colony forming (clonogenic) assay. Cells were plated 36 h prior to experimentation. Cells were pre-treated with MEK1/2 inhibitor as indicated, 2 h prior to exposure. Cells were irradiated (2 Gy). After a further 48 h, cells were isolated by tryptic digestion and single cell suspensions plated on Linbro® plates at densities of 500 cells/well and 1000 cells/well. Colony formation was defined as a colony of 50 cells or greater, 10 days after plating.

In test [4] the test system is MDA-MB-231 cells. Briefly: Colony forming (clonogenic) assay in MDA-MB-231 cells. The test is classed as cell-based, human. As to conditions: MDA-MB-231 (MDA), 25 μM PD98059, 150 nM UCN-01, replated 48 h, ± SEM. The protocol: as §2
Test [5] concerns MAPK/ERK. Briefly: p42 MAPK immune complex kinase assay in carcinoma cells. The test is classed as cell-based, human. As to conditions: MCF7, MDA-MB-231, T47D and DU145 cells; UCN-01 150 nM; MEK1/2 inhibitors (PD98059 25 μM, PD184352 10 μM, U0126 5 μM) given with UCN-01. The protocol:
Immunoprecipitations from Lysates. Fifty microliters of Protein A agarose (Ag) slurry (25 μl bead volume) was washed twice with 1 ml PBS containing 0.1% (v/v) Tween 20, and resuspended in 0.1 ml of the same buffer. Antibodies (2 μg, 20 μl), serum (20 μl) were added to each tube and incubated (3 h, 4° C.). For pre-conjugated antibodies,10 μl of slurry (4 μg antibody) was used. Clarified equal aliquots of lysates (0.25 ml, 100 μg total protein) were mixed with Ag-conjugated antibodies in duplicate using gentle agitation (2.5 h, 4° C.). Ag-antibody-antigen complexes were recovered by centrifugation, the supernatant discarded, and washed (10 min) sequentially with 0.5 ml buffer A (twice), PBS and buffer B [25 mM Hepes, pH 7.4, 0.1 mM Na3VO4].
Assay of p42^MAPK activity. Immunoprecipitates were incubated (final volume 50 μl ) with 50 μl of buffer B containing 0.2 mM [γ-^32P]ATP (5000 cpm/pmol), 1 μM Microcystin-LR, 0.5 mg/ml myelin basic protein NP), which initiated reactions at time=0. After 20 min., 40 μl of the reaction mixtures were spotted onto a 2 cm circle of P81 paper (Whatman, Maidstone, England) and immediately placed into 180 mM phosphoric acid. Papers were washed four times (10 min each) with phosphoric acid, and once with acetone, and ^32P-incorporation into MBP was quantified by liquid scintillation spectroscopy.

Test [6] deals with MCF7 cells. Briefly: Colony forming (clonogenic) assay in MCF7 cells. The test is classed as cell-based, human. As to conditions: 25 μM PD98059, 150 nM UCN-01, replated 48 h, ± SEM. The protocol:
as §2

The test system of test [7] is T47D cells. Briefly: Colony forming (clonogenic) assay in T47D cells. The test is classed as cell-based, human. As to conditions: 25 μM PD98059, 150 nM UCN-01, replated 48 h, ± SEM. The protocol: as §2
The subject of test [8] is MCF7 cells. As to conditions: MCF7, 24 h; with 150 nM UCN-01; PD184352 10 μM, U0126 5 μM; FIG. 8B. The protocol:
Terminal Uridyl-Nucleotide End Labeling (TUNEL) for apoptosis. […] Cells were isolated 24 h after irradiation by trypsinizationi followed by centrifugation onto glass slides (cytospin). Terminal Uridyl-Nucleotide End Labeling (TUNEL) was performed on these cells as described previously [Wang et al., 1999; Park et al., 1999]. Randomly selected fields of fixed cells (150 cells per field, n=5 per slide) were counted initially using propidium iodide counter stain, followed by examination and counting of TUNEL positive staining cells of the same field under FITC/fluorescence light.

Test [9] has as its system MDA-MB-231 cells. Kind of test: TUNEL apoptosis in MDA-MB-231 cells. The test is classed as cell-based, human. To be noted: MDA-MB-231, 24 h; with 150 nM UCN-01; PD184352 10 μM, U0126 5 μM; FIG. 8A. The source says: (§3) Terminal Uridyl-Nucleotide End Labeling (TUNEL) for apoptosis.
Test [10] concerns mammary and prostate carcinoma cells. Kind of test: Apoptosis by double stranded DNA breaks (TUNEL) in carcinoma cells, all cell types examined. The test is classed as cell-based, human. As to conditions: for effect on potentiation of apoptosis by MEK1/2 inhibitor and UCN-01: carcinoma cells, 24 h, 25 μM PD98059 + 150 nM UCN-01, caspase inhibitor 20 μM.
From the text: as §3

Turning to `C[C@@H]1C[C@@H]([C@H](O)CC2CC(=O)NC(=O)C2)C(=O)[C@@H](C)C1` [CHX, cycloheximide], the “effect on mitochondrial injury (loss of ΔΨm) in PD184352/UCN-01-treated cells” value in test [1] (18 h) is given as “not attenuated”. Further, the “effect on apoptosis in PD184352/UCN-01-treated cells” value in test [2] (U937 cells, 18 h) was “not attenuated”.
Consider `Cn1c(=O)c2c(ncn2C)n(C)c1=O` [Caffeine], for which the “mitochondrial damage (reduction in ΔΨm) in PD184352-treated cells” value in [1] (18 h, caffeine 2 mM with PD184352 10 μM, FIG. 4A) is “substantially increased”. Besides, the “apoptosis in PD184352-treated cells” value in test [2] (U937 cells, 18 h, caffeine 2 mM with PD184352 10 μM, FIG. 4A) is recorded as “substantially increased”.
In the case of `O=c1cc(N2CCOCC2)oc2c(-c3ccccc3)cccc12` [LY294002], the “percentage of apoptotic cells” value in test [2] (U937 cells, 24 hr, 100 nM UCN-01, 10 μM LY294002, FIG. 14) is reported as “about 20%”.
Turning to `COc1cccc(-c2cc(=O)c3ccccc3o2)c1N` [PD98059], the “clonogenic survival (colonies, normalized to control unirradiated cells = 100%)” value was determined as 65 ± 2% in test [3] (DU145, 2 Gy); 99 ± 6% in test [3] (DU145, mock irradiated); 44 ± 1 % in test [4] (2 Gy); 91 ± 1% in test [4] (mock irradiated); 39 ± 3 % in test [6] (MCF7, 2 Gy); 91 ± 5% in [6] (MCF7, mock irradiated). Moreover, the “clonogenic survival (colonies, normalized to control unirradiated cells = 100%)” value in test [7] (2 Gy) was found to be 69 ± 5%; in test [7] (mock irradiated), 97 ± 2%. For the same compound, the “MAPK/ERK activity (immune complex kinase assay)” value in test [5] is “opposed”. Further, the “cell death (morphological features of apoptosis) on coadministration with UCN-01” value in [2] (U937 cells, 24 h, with 200 nM UCN-01, PD98059 50 μM, U0126 20 μM (FIG. 1C, D)) is “marked potentiation of cell death”.
As to `C[S+]([O-])c1ccc(-c2nc(-c3ccncc3)c(-c3ccc(F)cc3)[nH]2)cc1` (centres unmarked) [SB203580], the “effect on mitochondrial injury (loss of ΔΨm) in PD184352/UCN-01-treated cells” value in [1] (18 h) is “only partially attenuated”. The “effect on apoptosis in PD184352/UCN-01-treated cells” value in [2] (U937 cells, 18 h) was “only partially attenuated”.
For the compound `CCCCCCCCCCCCCCC[C@H](O)[C@@H](N)CO` [Safingol], the “"Low" DiOC6 (% cells)” value in test [1] (18 h) stood at 13.6 ± 0.8%. In test [2] (U937 cells, 18 h), the “Apoptotic cells (%)” value stood at 1.9 ± 0.2%.
For `N#CC(=C(/N)Sc1ccccc1N)/C(C#N)=C(\N)Sc1ccccc1N` [U0126], the “apoptosis in combination with UCN-01” value in test [8] and in test [9] was “enhanced apoptosis” in each case. The “MAPK/ERK activity (immune complex kinase assay)” value in [5] is given as “opposed”. Besides, the “cell death (morphological features of apoptosis) on coadministration with UCN-01” value in [2] is listed as “marked potentiation of cell death”.
As for IETD, the “effect on potentiation of apoptosis by MEK1/2 inhibitor and UCN-01” value in test [10] is listed as “partially attenuated”. Further, in test [1], the “effect on loss of ΔΨm by UCN-01 and PD184352” value is recorded as “ineffective”. Moreover, the “effect on induction of apoptosis by UCN-01 and PD184352” value in test [2] (U937 cells) was “ineffective”.
For ZVAD-fmk, the “effect on potentiation of apoptosis by MEK1/2 inhibitor and UCN-01” value in test [10] was “abolished”. The “effect on loss of ΔΨm by UCN-01 and PD184352” value in [1] was “blocked”. In addition, the “effect on induction of apoptosis by UCN-01 and PD184352” value in [2] (U937 cells) is given as “blocked”.
As to bisindolylmaleimide [GFX], in [10] (all carcinoma cell types examined, bisindolylmaleimide 1 μM in place of UCN-01), the “apoptosis after 24 h” value was “did not mimic the actions of UCN-01”. The “"Low" DiOC6 (% cells)” value in test [1] (18 h) amounted to 13.2 ± 0.6%. The “Apoptotic cells (%)” value in test [2] (U937 cells, 18 h) turned out to be 1.9 ± 0.2%.
